Measurements: patent US7632833B2, “Mitotic kinesin inhibitors” (Merck & Co., Inc., priority 2004, dated 2009)
Read-outs that look alike come from different tables or passages of the source.

Biological target: T1, human poly-histidine tagged KSP motor domain (KSP(367H)) (Homo sapiens, UniProt P52732)
T1 construct: were used to amplify the motor domain and the neck linker region; made in house; host or cells: E. coli BL21 (DE3), vector pRSETa
T1 sequence (P52732 18-359 limits assumed): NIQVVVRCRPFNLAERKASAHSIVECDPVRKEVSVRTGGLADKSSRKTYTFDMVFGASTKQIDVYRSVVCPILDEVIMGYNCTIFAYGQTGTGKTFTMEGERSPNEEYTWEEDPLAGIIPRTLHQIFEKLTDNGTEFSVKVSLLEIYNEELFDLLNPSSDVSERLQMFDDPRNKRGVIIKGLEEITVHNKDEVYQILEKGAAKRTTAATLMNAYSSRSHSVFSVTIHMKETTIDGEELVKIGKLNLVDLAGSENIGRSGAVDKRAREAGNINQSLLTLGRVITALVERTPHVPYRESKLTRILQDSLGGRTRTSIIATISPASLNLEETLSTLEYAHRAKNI
Test: Kinesin ATPase In Vitro Assay
Assay type: biochemical
Experimental: I. Kinesin ATPase In Vitro Assay
The N-terminal primer 5′-[…] (SEQ. ID. NO.: 1) and the C-terminal primer 5′-[…] […] (SEQ. ID. NO.: 2)
were used to amplify the motor domain and the neck linker region. The PCR products were digested with AseI and XhoI, ligated into the NdeI/XhoI digestion product of pRSETa (Invitrogen) and transformed into E. coli BL21 (DE3).
Cells were grown at 37° C. to an OD600 of 0.5. After cooling the culture to room temperature expression of KSP was induced with 100 μM IPTG and incubation was continued overnight. Cells were pelleted by centrifugation and washed once with ice-cold PBS. Pellets were flash-frozen and stored −80° C.
Protein Purification: Cell pellets were thawed on ice and resuspended in lysis buffer (50 mM K-HEPES, pH 8.0, 250 mM KCl, 0.1% Tween, 10 mM imidazole, 0.5 mM Mg-ATP, 1 mM PMSF, 2 mM benzimidine, 1× complete protease inhibitor cocktail (Roche)). Cell suspensions were incubated with 1 mg/ml lysozyme and 5 mM β-mercaptoethanol on ice for 10 minutes, followed by sonication (3×30 sec). All subsequent procedures were performed at 4° C. Lysates were centrifuged at 40,000×g for 40 minutes. Supernatants were diluted and loaded onto an SP Sepharose column (Pharmacia, 5 ml cartridge) in buffer A (50 mM K-HEPES, pH 6.8, 1 mM MgCl2, 1 mM EGTA, 10 μM Mg-ATP, 1 mM DTT) and eluted with a 0 to 750 mM KCl gradient in buffer A. Fractions containing KSP were pooled and incubated with Ni-NTA resin (Qiagen) for one hour. The resin was washed three times with buffer B (Lysis buffer minus PMSF and protease inhibitor cocktail), followed by three 15-minute incubations and washes with buffer B. Finally, the resin was incubated and washed for 15 minutes three times with buffer C (same as buffer B except for pH 6.0) and poured into a column. KSP was eluted with elution buffer (identical to buffer B except for 150 mM KCl and 250 mM imidazole). KSP-containing fractions were pooled, made 10% in sucrose, and stored at −80° C.
Microtubules are prepared from tubulin isolated from bovine brain. Purified tubulin (>97% MAP-free) at 1 mg/ml is polymerized at 37° C. in the presence of 10 μM paclitaxel, 1 mM DTT, 1 mM GTP in BRB80 buffer (80 mM K-PIPES, 1 mM EGTA, 1 mM MgCl2 at pH 6.8). The resulting microtubules are separated from non-polymerized tubulin by ultracentrifugation and removal of the supernatant. The pellet, containing the microtubules, is gently resuspended in 10 μM paclitaxel, 1 mM DTT, 50 μg/ml ampicillin, and 5 μg/ml chloramphenicol in BRB80.
The kinesin motor domain is incubated with microtubules, 1 mM ATP (1:1 MgCl2: Na-ATP), and compound at 23° C. in buffer containing 80 mM K-HEPES (pH 7.0), […], 1 mM DTT, 1 mM MgCl2, and 50 mM KCl. The reaction is terminated by a 2-10 fold dilution with a final buffer composition of 80 mM HEPES and 50 mM EDTA. […] The reaction is incubated for 10 minutes at 23° C., and the absorbance of the phospho-molybdate complex is measured at 540 nm.

[1] = (3R,4R) enantiomeric form tested, kinesin motor domain with microtubules, 1 mM ATP, 23° C., free phosphate by quinaldine red/ammonium molybdate, read-out: IC50

Compound | IC50 [1] [µM] | IC50 [µM]
CNC(=O)N1CCN(CCC[C@]2(c3ccccc3)C(C(C)=O)=NN3c4cc(F)ccc4OC[C@H]32)CC1 [Compound 4-28, 4-{3-[(3R,4R)-2-acetyl-8-fluoro-3-phenyl-3a,4-dihydro-3H-pyrazolo[5,1-c][1,4]benzoxazin-3-yl]propyl}-N-methylpiperazine-1-carboxamide] | ≤ 30 | –
CC(=O)C1=NN2c3cc(F)ccc3OC[C@H]2[C@@]1(CCCN1CCN(C(N)=O)CC1)c1ccccc1 [Compound 4-27, 4-{3-[(3R,4R)-2-acetyl-8-fluoro-3-phenyl-3a,4-dihydro-3H-pyrazolo[5,1-c][1,4]benzoxazin-3-yl]propyl}piperazine-1-carboxamide] | ≤ 30 | –
CC(=O)C1=NN2c3cc(F)ccc3OCC2C1(CCCN1CCNCC1)c1ccccc1 [Compound 4-23, (3R,4R) 1-[8-fluoro-3-phenyl-3-(3-piperazin-1-ylpropyl)-3a,4-dihydro-3H-pyrazolo[5,1-c][1,4]benzoxazin-2-yl]ethanone] | – | ≤ 30
CC(=O)C1=NN2c3cc(F)ccc3OC[C@H]2[C@@]1(CCCN1CCN(C(=O)c2ccco2)CC1)c1ccccc1 [Compound 4-33, 1-((3R,4R)-8-fluoro-3-{3-[4-(2-furoyl)piperazin-1-yl]propyl}-3-phenyl-3a,4-dihydro-3H-pyrazolo[5,1-c][1,4]benzoxazin-2-yl)ethanone] | ≤ 30 | –
CON(C)C(=O)C1=NN2c3cc(F)ccc3OC[C@H]2[C@@]1(CCCO)c1ccccc1 [Compound 4-11, (3R,4R) 8-fluoro-3-(3-hydroxypropyl)-N-methoxy-N-methyl-3-phenyl-3a,4-dihydro-3H-pyrazolo[5,1-c][1,4]benzoxazine-2-carboxamide] | ≤ 30 | –
CC(=O)NCCNCCC[C@]1(c2ccccc2)C(C(C)=O)=NN2c3cc(F)ccc3OC[C@H]21 [Compound 4-40, N-[2-({3-[(3R,4R)-2-acetyl-8-fluoro-3-phenyl-3a,4-dihydro-3H-pyrazolo[5,1-c][1,4]benzoxazin-3-yl]propyl}amino)ethyl]acetamide] | ≤ 30 | –
CC(=O)C1=NN2c3cc(F)ccc3OC[C@H]2[C@@]1(CCCN1CCN(C(=O)c2cc(C)on2)CC1)c1ccccc1 [Compound 4-35, 1-[(3R,4R)-8-fluoro-3-(3-{4-[(5-methylisoxazol-3-yl)carbonyl]piperazin-1-yl}propyl)-3-phenyl-3a,4-dihydro-3H-pyrazolo[5,1-c][1,4]benzoxazin-2-yl]ethanone] | ≤ 30 | –
CC(=O)C1=NN2c3cc(C)ccc3OCC2C1(CCCN(C)C)c1ccccc1 [Compound 4-18, (3R,4R) 1-{3-[3-(dimethylamino)propyl]-8-methyl-3-phenyl-3a,4-dihydro-3H-pyrazolo[5,1-c][1,4]benzoxazin-2-yl}ethanone] | – | ≤ 30

More lines, now with the values ahead:

IC50 [1] [µM] | IC50 [µM] | Compound
≤ 30 | – | CC(=O)C1=NN2c3cc(F)ccc3OC[C@H]2[C@@]1(CCCN1CCN(C)C(=O)C1)c1ccccc1 [Compound 4-37, 4-{3-[(3R,4R)-2-acetyl-8-fluoro-3-phenyl-3a,4-dihydro-3H-pyrazolo[5,1-c][1,4]benzoxazin-3-yl]propyl}-1-methylpiperazin-2-one]
– | ≤ 30 | CC(=O)C1=NN2c3cc(F)ccc3OCC2C1(CCCN1CCNC(=O)CC1)c1ccccc1 [Compound 4-21, 1-{3-[(3R,4R)-2-acetyl-8-fluoro-3-phenyl-3a,4-dihydro-3H-pyrazolo[5,1-c][1,4]benzoxazin-3-yl]propyl}-1,4-diazepan-5-one]
≤ 30 | – | CC(=O)C1=NN2c3cc(F)ccc3OC[C@H]2[C@@]1(CCCN1CCNC(=O)C1)c1ccccc1 [Compound 4-36, 4-{3-[(3R,4R)-2-acetyl-8-fluoro-3-phenyl-3a,4-dihydro-3H-pyrazolo[5,1-c][1,4]benzoxazin-3-yl]propyl}piperazin-2-one]
– | ≤ 30 | CC(=O)C1=NN2c3cc(F)ccc3OC[C@H]2[C@@]1(CCCN1CCN(C(C)=O)CC1)c1ccccc1 [Compound 5-10, 1-{(3R,4R)-3-[3-(4-acetylpiperazin-1-yl)propyl]-8-fluoro-3-phenyl-3a,4-dihydro-3H-pyrazolo[5,1-c][1,4]benzoxazin-2-yl}ethanone]
